Data: patent publication US11505592B2, “Diagnosis and therapy of multiple sclerosis” (PRINDEX S.R.L., priority 2015, dated 2022)

Tests used:
[1] = tested on: MS sera; assay: PEPSCAN-based ELISA, binding of MS sera to library peptides; set-up: species or system human; conditions: ELISA binding value, MS sera n = 9
Description: (§1) The linear and CLIPS peptides are synthesized based on the amino acid sequence of the target protein using standard Fmoc-chemistry and deprotected using […] with scavengers. The constrained peptides are synthesized on chemical scaffolds in order to reconstruct conformational epitopes, using Chemically Linked Peptides on Scaffolds (CLIPS) technology (Timmerman et al. (2007). For example, the single looped peptides are synthesized containing a dicysteine, which was cyclized by treating with alpha, alpha′-dibromoxylene and the size of the loop is varied by introducing cysteine residues at variable spacing. If other cysteines besides the newly introduced cysteines are present, they are replaced by alanine. The side-chains of the multiple cysteines in the peptides are coupled to CLIPS templates by reacting onto credit-card format polypropylene PEPSCAN cards (455 peptide formats/card) with a 0.5 mM solution of CLIPS template such as 1,3-bis (bromomethyl) benzene in ammonium bicarbonate (20 mM, pH 7.9)/acetonitrile (1:1(v/v)). The cards are gently shaken in the solution for 30 to 60 minutes while completely covered in solution. Finally, the cards are washed extensively with excess of H2O and sonicated in distrupt-buffer containing 1 percent SDS/0.1 percent beta-mercaptoethanol in PBS (pH 7.2) at 70° C. for 30 minutes, followed by sonication in H2O for another 45 minutes.
(§2) The binding of antibody to each peptide is tested in a PEPSCAN-based ELISA. The 455-well credit card format polypropylene cards containing the covalently linked peptides are incubated with primary antibody solution for example consisting of 1/1000 diluted serum in blocking solution, for example 4% horse serum, 5% ovalbumin (w/v) in PBS/1% Tween. After washing, the peptides are incubated with a 1/1000 dilution of antibody peroxidase conjugate for one hour at 25° C. After washing, the peroxidase substrate 2,2′-azino-di-3-ethylbenzthiazoline sulfonate (ABTS) and 2 microlitres of 3 percent H2O2 are added. After one hour, the color development are measured. The color development are quantified with a charge coupled device (CCD)-camera and an image processing system (Slootstra et al., 1996).
(§3) The raw data are optical values obtained by a CCD-camera calibrated to export absorption values compatible with a standard 96-well plate ELISA-reader. First the CCD-camera makes a picture of the card before peroxidase coloring and then again a picture after the peroxidase coloring. These two pictures are substracted from each other yielding a binding value for each peptide.
(§4) All peptides have been synthesized in a peptide array format and the binding of 20 different sera to all peptide libraries were measured in an ELISA based set up following the procedure described in detail in the method section “Peptide synthesis and screening assays”. In particular 2 sets of experiments were performed on the 2 libraries by using 2 different dilutions of the human patients sera. In the first set of experiment the 20 sera were used at 1:2500 dilutions, while in the second experiment the dilution of the sera was 1:1000. The binding of the different sera to all peptides was quantified and analyzed in detail (Tables 1 and 2, FIGS. 15A, B, C, D and […]

[2] = tested on: CTRL sera; assay: PEPSCAN-based ELISA, binding of control (CTRL) sera to library peptides; set-up: species or system human; conditions: ELISA binding value, CTRLs n = 10
Description: as §1, §2, §3, §4

Sequence	MEAN MS ([1]; NOX2 library)	MEAN CTRL ([2]; NOX2 library)	MEAN MS ([1]; 5HT2A receptor library)	MEAN CTRL ([2]; 5HT2A receptor library)
CQKISEWGKIKESPIPCVSEQKISEWGKIKESC [SEQ ID NO: 98]	815.972	450.975	–	–
CQNESYLNFARKRIKNC [SEQ ID NO: 90]	667.389	361.75	–	–
CQNESYLNFARKRIKNCNFARKRIKNPEGGLYC [SEQ ID NO: 150]	697.056	392.3	–	–
CQNESYLNFARKRIKNCSYLNFARKRIKNPEGC [SEQ ID NO: 135]	711.556	396.7	–	–
CQNESYLNFARKRIKNCVSEQKISEWGKIKESC [SEQ ID NO: 111]	747.139	419.075	–	–
CQTAESLAVHNITVSECQNESYLNFARKRIKNC [SEQ ID NO: 100]	697.667	367.45	–	–
CQTAESLAVHNITVSECVSEQKISEWGKIKESC [SEQ ID NO: 139]	590.111	339.65	–	–
CRQNESYLNFARKRIKC [SEQ ID NO: 95]	653.944	350.1	–	–
CRVNNSDPYSVALSELCQNESYLNFARKRIKNC [SEQ ID NO: 137]	743.167	398.05	–	–
CRVNNSDPYSVALSELCVSEQKISEWGKIKESC [SEQ ID NO: 151]	731.111	422.275	–	–
CSDAFNWTVDSENRCMDILSEENTSLSSC [Peptide 22]	–	–	394.00	207.20
CSELGDRQNESYLNFACQNESYLNFARKRIKNC [SEQ ID NO: 80]	773.167	398.9	–	–
CSEQKISEWGKIKESPC [SEQ ID NO: 114]	501.167	271.75	–	–
CSLSSTTNSLMQLNCMDILSEENTSLSSC [Peptide 18]	–	–	323.72	188.90
CSSLSLLHLQEKNWCMDILSEENTSLSSC [Peptide 45]	–	–	318.17	198.50
CSTTNSLMQLNDDTCMDILSEENTSLSSC [Peptide 11]	–	–	321.28	186.85
CSYLNFARKRIKNPEGCGDRQNESYLNFARKRC [SEQ ID NO: 125]	786.389	430.35	–	–
CSYLNFARKRIKNPEGCITVSEQKISEWGKIKC [SEQ ID NO: 122]	796.222	457.4	–	–
CSYLNFARKRIKNPEGCNFARKRIKNPEGGLYC [SEQ ID NO: 138]	659.944	371.8	–	–
CSYLNFARKRIKNPEGCQNESYLNFARKRIKNC [SEQ ID NO: 61]	778.278	398.9	–	–
CTRLYSNDFNSGEACKESSNEDVIGALLC [Peptide 42]	–	–	561.03	333.60
CTVDSENRTNLSSECMDILSEENTSLSSC [Peptide 13]	–	–	300.11	160.80
CTVDSENRTNLSSECRTNLSSEGSLSPSC [Peptide 25]	–	–	507.22	296.95
CVALSELGDRQNESYLCQNESYLNFARKRIKNC [SEQ ID NO: 110]	761.778	406.75	–	–
CVFKEGSSLLADDNCKESSNEDVIGALLC [Peptide 38]	–	–	594.61	348.13
CVFKEGSSLLADDNCSDAFNWTVDSENRC [Peptide 47]	–	–	399.89	244.50
CVNARVNNSDPYSVALCTVSEQKISEWGKIKEC [SEQ ID NO: 154]	799.667	455.6	–	–

Sequence	MEAN MS ([1]; NOX2 library)	MEAN CTRL ([2]; NOX2 library)	MEAN MS ([1]; 5HT2A receptor library)	MEAN CTRL ([2]; 5HT2A receptor library)
CVNARVNNSDPYSVALCVSEQKISEWGKIKESC [SEQ ID NO: 128]	772.583	436.575	–	–
CVRGQTAESLAVHNITCITVSEQKISEWGKIKC [SEQ ID NO: 134]	758.278	440.5	–	–
CVRGQTAESLAVHNITCQNESYLNFARKRIKNC [SEQ ID NO: 66]	824.500	438.35	–	–
CVRGQTAESLAVHNITCSLAVHNITVSEQKISC [SEQ ID NO: 156]	546.444	304.75	–	–
CVRGQTAESLAVHNITCVHNITVSEQKISEWGC [SEQ ID NO: 148]	445.278	263.5	–	–
CVSEQKISEWGKIKESCEQKISEWGKIKESPIC [SEQ ID NO: 84]	811.056	443.5	–	–
CVSEQKISEWGKIKESCGDRQNESYLNFARKRC [SEQ ID NO: 112]	846.778	462.45	–	–
CVSEQKISEWGKIKESCQNESYLNFARKRIKNC [SEQ ID NO: 64]	804.556	402.9	–	–
CVSEQKISEWGKIKESCTVSEQKISEWGKIKEC [SEQ ID NO: 142]	760.333	446.5	–	–
CVSEQKISEWGKIKESCVSEQKISEWGKIKESC [SEQ ID NO: 115]	756.639	432.35	–	–
DPYSVALSELAARQN [SEQ ID NO: 78]	565.389	325.05	–	–
DPYSVALSELGDRQN [SEQ ID NO: 132]	300.556	177.25	–	–
ESYLNFARK [SEQ ID NO: 107]	535.667	296.3	–	–
FARKRIKNP [SEQ ID NO: 67]	666.111	337.4	–	–
GDRQNESYLNAGRKR [SEQ ID NO: 68]	547.278	294.2	–	–
GDRQNESYLNFARKR [SEQ ID NO: 120]	325.333	163.95	–	–
GKIKECPIP [SEQ ID NO: 102]	594.611	324.35	–	–
GYRWPLPSK [Peptide 14]	–	–	623.00	322.80
KISEWGKIK [SEQ ID NO: 83]	404.500	223.9	–	–
LGDRQNESYLAAARK [SEQ ID NO: 127]	478.278	262.75	–	–
LGDRQNESYLNFARK [SEQ ID NO: 104]	457.556	252.4	–	–
LNFARKRIK [SEQ ID NO: 59]	557.056	294.6	–	–
LNFARKRIKNAAGGL [SEQ ID NO: 91]	354.778	187.85	–	–
LTILYGYRWPAASKL [Peptide 3]	–	–	653.28	322.35
LTILYGYRWPLPSKL [Peptide 8]	–	–	647.17	340.05
NESYLNFARKAAKNP [SEQ ID NO: 62]	505.278	279.1	–	–
